Results reported in US8785400B2, “Methods and compositions relating to islet cell neogenesis” (CureDM Group Holdings, LLC, priority 2006, dated 2014).

Columns and labels:
[1] = test system: streptozocin-induced diabetic mouse; assay: Streptozocin-induced diabetic mouse (Example 6); type: in vivo; details: streptozocin mice; for mean reduction in glucose: from baseline, placebo 9.5%
Description: The streptozocin-induced diabetic mouse is a convenient animal model of type 1 diabetes because researchers are able to chemically induce diabetes under controlled conditions rather than waiting for mice to become diabetic naturally or by forcing diabetes through prescribed obesity. Based on experience with the streptozocin model in the rat, a high degree of variability was anticipated for the induction of the disease in mice and therefore 60 mice were induced with streptozocin. Mice were injected intraperitoneally with streptozocin at 40 mg/kg in citrate buffer, pH4.5, on 5 consecutive days in an attempt to render them diabetic. A mouse was considered diabetic once its blood glucose level was greater than 16.7 mmol/L (300 mg/dL) for at least 1 week. If the blood glucose level of any animal became too high (>400 mg/dL) the animal was treated with an effective amount of insulin. In this example, 60 male mice, ranging from 6-8 weeks old at the outset of the study, were treated with streptozocin as described above. Those mice that were declared diabetic were then used to test the effectiveness of HIP2 as compared to other test agents.
Animals were group housed in compliance with the National Research Council “Guide for the Care and Use of Laboratory Animals”. The animals received 12 hours light/12 hours dark, except when room lights were turned on during the dark cycle to accommodate study procedures. Room temperature was maintained between 18 to 26° C. at all times. Relative humidity was maintained between 30-70% at all times. All animals were given access to Harlan Teklad Rodent Diet or equivalent and tap water via water bottle. Animals were allowed to acclimate to their new environment for a minimum of 7 days prior to first dosing.
Mice were randomly divided and assigned to study groups. Each study group was assigned treatment with one of 5 test agents (see Treatment section below). Prior to being treated, each mouse was tested for diabetes via monitoring their blood glucose levels. After confirmation that the mice were diabetic (blood glucose levels greater than 16.7 mmol/L (300 mg/dL) for at least 1 week) the mice were dosed with their respective test agent.
Each study group received doses of one of the following test agents: HIP2, HIP1, HIP, Hamster INGAP (SEQ ID NO:1) or isotonic saline “Vehicle” (0.9% NaCl) (negative control). Mice were given doses of their respective agent interperitoneally twice daily (am and pm, +/−2 hours for each administration) at 250 ug/dose, in 100 ul dose volume, for 28 consecutive days. Test agents were prepared once daily by dissolving the appropriate amount of test agent in isotonic saline to result in a 2.5 mg/ml solution. Blood glucose levels were tested every 3 days, at the same time each day, using a glucometer. If the blood glucose level in any animal became too high, the animal was treated with insulin. At the end of the treatment, all surviving animals were euthanized by CO2 asphyxiation following terminal blood collection. Blood samples were collected under CO2 cardiocentesis. The plasma was separated and then frozen at −80° C. For histological analysis, the pancreas from each mouse was removed and snap-frozen.
Blood glucose levels are measured every 3 days and tracked to evaluate differences in glucose levels.

diabetic patients = details: cited from earlier work
[2] = doses up to 10,000 IU/day; cited from earlier work
type 1 diabetes patients = details: single course; after onset of type 1 diabetes, some patients; cited from earlier work
[3] = test system: human pancreatic progenitor cells; assay: Inverted microscopy of human ductal/progenitor tissue cultures (Example 4); type: cell-based
[4] = test system: pancreatic islets of treated mice; assay: Quantitative immunohistochemistry image analysis of mouse pancreata (Example 7); type: in vivo
Description: The islet mass of the placebo group was 854,362 μm (2) compared with 2,161,782 μm (2) in HIP-treated mice.
Islet size was not different between HIP treated and control group, whereas, islet number and mass was increased.

Question: Which results are given for “hamster INGAP: non-human islet neogenesis associated peptide, hamster sequence, positive control (SEQ ID NO:1) (IGLHDPSHGTLPNGS; Fragment of naturally occurring hamster INGAP protein)”?
Answer: overall insulin requirements lower compared to controls [1]: 14%; mean reduction in glucose [1]: 20%; patients with a >50% increase in GAD65 antibody titers (diabetic patients; 300 mg/day, Phase II): 22 % of the patients; C-peptide secretion (diabetic patients; 600 mg/day): increase in C-peptide secretion; tolerability (diabetic patients; Phase I and II trials): well tolerated; drop out due to injection site reactions (diabetic patients; Phase II trial, diabetic patients): high drop out; effectiveness (diabetic patients; Phase II trial): Little effectiveness; hemoglobin A1C (diabetic patients; type 2 diabetes patients): fell

Question: Which adverse effects [2] does the source give for C=C1CC[C@H](O)C/C1=C/C=C1\CCC[C@]2(C)[C@@H]([C@H](C)CCCC(C)C)CC[C@@H]12 [Vitamin D, cholecalciferol] here?
Answer: No adverse effects

Question: Which “duration of improvement in C-peptide responses and clinical parameters” value (type 1 diabetes patients) does the source give for “hOKT3gamma1 (Ala-Ala): anti-CD3 monoclonal antibody” here?
Answer: at least 2 years

Question: With “HIP: Human proIslet Peptide, 15-mer human counterpart of the hamster INGAP peptide (SEQ ID NO:2) (IGLHDPTQGTEPNGE; Fragment of naturally occurring human REG3 protein)” as the compound, how does the “overall insulin requirements lower compared to controls” value [1] read?
Answer: 32%

Question: What about the “insulin requirements (and rate of decrease)” value ([1]; compared to placebo) of the same compound?
Answer: significant reduction

Question: And the “mean reduction in glucose” value [1]?
Answer: 26.9%

Question: What about the “morphology of progenitor tissue cultures (FIG. 7A)” value ([3]; day 2 of treatment (day 12)) of the same compound?
Answer: forming a nidus of new insulin producing islets

Question: And the “morphology of progenitor tissue cultures (FIG. 7B)” value ([3]; day 6 of treatment (day 18))?
Answer: forming insulin producing islet like structure

Question: And the “islet size vs placebo/control” value ([4]; mouse, in vivo)?
Answer: not statistically different

Question: And the “number of islets counted greater than placebo group” value ([4]; p=0.022)?
Answer: 62%

Question: And the “total islet mass greater than placebo group” value ([4]; p=0.05)?
Answer: 153%

Question: And the islets counted ([4]; placebo 280)?
Answer: 454

Question: And the islet mass ([4]; placebo 854,362)?
Answer: 2,161,782 μm (2)

Question: And the “total islet mass (qualitative)” value ([4]; vs control)?
Answer: increased

Question: What about the “total islet number (qualitative)” value ([4]; vs control) of the same compound?
Answer: increased
